Where two headings read alike, the source gives them in different places.
Test system: Anopheles stephensi
Test: Anopheles stephensi treated well plate contact test: knockdown and mortality
Format: in vivo
Conditions: for mortality at 0.2 ppm / pest or weed control at 0.2 ppm / mortality at 2 ppm / pest or weed control at 2 ppm / mortality at 20 ppm / pest or weed control at 20 ppm / mortality at 200 ppm / pest or weed control at 200 ppm / mortality at 0.02 ppm / pest or weed control at 0.02 ppm: Anopheles stephensi, without TFNA-AM; for mortality at 0.2 ppm / pest or weed control at 0.2 ppm: test compound 0.2 ppm; for pest or weed control at 0.2 ppm / pest or weed control at 2 ppm / pest or weed control at 20 ppm / pest or weed control at 200 ppm / Knock Down, with TFNA-AM / pest or weed control at 0.02 ppm: knockdown after 1 hour; for pest or weed control at 0.2 ppm / pest or weed control at 2 ppm / pest or weed control at 20 ppm / pest or weed control at 200 ppm / pest or weed control at 0.02 ppm: read-out: Knock Down, without TFNA-AM; for mortality at 2 ppm / pest or weed control at 2 ppm: test compound 2 ppm; for mortality at 20 ppm / pest or weed control at 20 ppm: test compound 20 ppm; for mortality at 200 ppm / pest or weed control at 200 ppm: test compound 200 ppm; for pest or weed control at 200 ppm: adult females; for mortality at 0.02 ppm / pest or weed control at 0.02 ppm: test compound 0.02 ppm
Method in brief: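 Well surfaces coated with ethanol solution of compound at a defined concentration, alone or with 2 ppm TFNA-AM, then dried. Five non-blood-fed 2–5-day-old adult females per well, fed 10% sucrose; knockdown scored at 1 hour, mortality at 24 and 48 hours, replicate means reported.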

[1] = after 24 hours, read-out: mortality % 24, without TFNA-AM
[2] = after 48 hours, read-out: mortality % 48, without TFNA-AM
[3] = test compound 0.2 ppm plus 2 ppm TFNA-AM, after 24 hours
[4] = test compound 0.2 ppm plus 2 ppm TFNA-AM, after 48 hours
[5] = test compound 0.2 ppm plus 2 ppm TFNA-AM
[6] = test compound 2 ppm plus 2 ppm TFNA-AM, after 24 hours
[7] = test compound 2 ppm plus 2 ppm TFNA-AM, after 48 hours
[8] = test compound 2 ppm plus 2 ppm TFNA-AM
[9] = test compound 20 ppm plus 2 ppm TFNA-AM, after 24 hours
[10] = test compound 20 ppm plus 2 ppm TFNA-AM, after 48 hours
[11] = test compound 20 ppm plus 2 ppm TFNA-AM
[12] = test compound 200 ppm plus 2 ppm TFNA-AM, after 24 hours
[13] = test compound 200 ppm plus 2 ppm TFNA-AM, after 48 hours
[14] = test compound 200 ppm plus 2 ppm TFNA-AM
[15] = test compound 0.02 ppm plus 2 ppm TFNA-AM, after 24 hours
[16] = test compound 0.02 ppm plus 2 ppm TFNA-AM

| SMILES | mortality at 0.2 ppm [1] | mortality at 0.2 ppm [2] | pest or weed control at 0.2 ppm | mortality at 2 ppm [1] | mortality at 2 ppm [2] | pest or weed control at 2 ppm | mortality at 20 ppm [1] | mortality at 20 ppm [2] | pest or weed control at 20 ppm | mortality at 200 ppm [1] | mortality at 200 ppm [2] | pest or weed control at 200 ppm | mortality % 48, with TFNA-AM [4] | Knock Down, with TFNA-AM [5] | mortality % 24, with TFNA-AM [6] | mortality % 48, with TFNA-AM [7] | Knock Down, with TFNA-AM [8] | mortality % 24, with TFNA-AM [9] | mortality % 48, with TFNA-AM [10] | Knock Down, with TFNA-AM [11] | further results |
| --- | --- | --- | --- | --- | --- | --- | --- | --- | --- | --- | --- | --- | --- | --- | --- | --- | --- | --- | --- | --- | --- |
| CCOC(=O)NCCOc1ccc(Oc2ccccc2)cc1 [Fenoxycarb] | 0% | 0% | 0% | 0% | 0% | 0% | 0% | 0% | 20% | 0% | 0% | 20% | 40% | 100% | 80% | 80% | 100% | 80% | 80% | 100% | mortality % 24, with TFNA-AM [3]: 40%; mortality % 24, with TFNA-AM [12]: 80%; mortality % 48, with TFNA-AM [13]: 80%; Knock Down, with TFNA-AM [14]: 100% |
| CO/C=C(/C(=O)OC)c1ccccc1Oc1ncc(C(F)(F)F)s1 [Compound 54] | 0% | 0% | 0% | 60% | 40% | 0% | 100% | 100% | 100% | 100% | 100% | 100% | 10% | 90% | 100% | 100% | 100% | 100% | 100% | 100% | mortality % 24, with TFNA-AM [12]: 100%; mortality % 48, with TFNA-AM [13]: 100%; Knock Down, with TFNA-AM [14]: 100% |
| CCOc1ccc(C(C)(C)COCc2cccc(Oc3ccccc3)c2)cc1 [Etofenprox] | 20% | 20% | 0% | 80% | 80% | 0% | 100% | 100% | 60% | – | – | – | 100% | 100% | 100% | 100% | 100% | 100% | 100% | 100% | mortality at 0.02 ppm [1]: 0%; mortality at 0.02 ppm [2]: 0%; pest or weed control at 0.02 ppm: 0%; mortality % 24, with TFNA-AM [15]: 60%; mortality % 48, with TFNA-AM (test compound 0.02 ppm plus 2 ppm TFNA-AM, after 48 hours): 60%; Knock Down, with TFNA-AM [16]: 100%; mortality % 24, with TFNA-AM [3]: 100% |
| CO/C=C(/C(=O)OC)c1ccccc1Oc1cc(C(F)(F)F)ccn1 [Compound 49] | 0% | 0% | 0% | 60% | 60% | 0% | 100% | 100% | 50% | 100% | 100% | 50% | 10% | 90% | 90% | 90% | 100% | 100% | 90% | 100% | mortality % 24, with TFNA-AM [3]: 50%; mortality % 24, with TFNA-AM [12]: 100%; mortality % 48, with TFNA-AM [13]: 90%; Knock Down, with TFNA-AM [14]: 100% |
| CC1(C)C(C=C(Cl)Cl)C1C(=O)OC(C#N)c1cccc(Oc2ccccc2)c1 (stereo not shown) [Cypermethrin] | 0% | 40% | 0% | 100% | 100% | 100% | 100% | 100% | 100% | – | – | – | 100% | 100% | 100% | 100% | 100% | 100% | 100% | 100% | mortality at 0.02 ppm [1]: 0%; mortality at 0.02 ppm [2]: 20%; pest or weed control at 0.02 ppm: 0%; mortality % 24, with TFNA-AM [15]: 80%; Knock Down, with TFNA-AM [16]: 100%; mortality % 24, with TFNA-AM [3]: 100% |
| CC(c1ccc(C(F)(F)F)nc1)S(C)(=O)=NC#N (stereo not shown) [Sulfoxaflor] | 0% | 30% | 0% | 0% | 60% | 0% | 70% | 80% | 0% | 80% | 100% | 20% | 20% | 100% | – | – | 100% | – | 90% | 100% | mortality % 24, with TFNA-AM [3]: 0%; mortality % 24, with TFNA-AM [12]: 90%; mortality % 48, with TFNA-AM [13]: 100%; Knock Down, with TFNA-AM [14]: 100% |
| CN/C(=N/CC1CCOC1)N[N+](=O)[O-] (stereo not shown) [Dinotefuran] | 0% | 0% | 0% | 40% | 40% | 0% | 40% | 80% | 0% | 100% | 100% | 40% | 60% | 100% | – | 60% | 100% | 100% | 100% | 100% | mortality % 24, with TFNA-AM [12]: 100%; mortality % 48, with TFNA-AM [13]: 100%; Knock Down, with TFNA-AM [14]: 100% |
| O=[N+]([O-])NC1=NCCN1Cc1ccc(Cl)nc1 [Imidacloprid] | 0% | 0% | 0% | 20% | 20% | 0% | 20% | 60% | 0% | 40% | 60% | 40% | 0% | 100% | 100% | 100% | 100% | 100% | 100% | 100% | mortality % 24, with TFNA-AM [12]: 100%; mortality % 48, with TFNA-AM [13]: 100%; Knock Down, with TFNA-AM [14]: 100% |

Source: patent US20260206755A1, “COMPOUNDS AND COMPOSITIONS HAVING KNOCK-DOWN OR BLOOD FEED INHIBITION ACTIVITY AGAINST INSECT PESTS” (priority 2017, published 2026)
